Legend:
rat adipocyte GPI-PLC = assay: adipocyte GPI-PLC assay (plasma membranes or hc/lcDIGs, AChE substrate, TX-114 partitioning); format: biochemical; conditions: at the highest concentration tested, only
Experimental: (§1) GPI-PLD (rat serum) was assayed according to “Hari et al. (1997) Biochim. Biophys. Acta 1355: 293-302” by incubation with 10 μl of human placental aP solution (100 U/ml in 10 mM Hepes/NaOH, pH 7.0, 150 mM NaCl) in 100 μl of 200 mM Tris/maleate (pH 7.0) and 1% Nonidet P-40 for 10 min at 37° C. and subsequent termination of the reaction by addition of 0.4 ml of ice-cold stop buffer (10 mM Hepes/NaOH, pH 7.0, 150 mM NaCl, 0.1 mM MgCl2 and 0.01 mM zinc acetate). GPI-PLC (T. brucei) was assayed as described in “Mensa-Wilmot et al. (1995) Methods Enzymol. 250: 641-655” by incubation with 5 μl of human placental aP solution (see above) in 50 μl of 50 mM Tris/HCl (pH 8.0), 0.25% Nonidet P-40 and 5 mM EDTA for 30 min at 37° C. and subsequent termination of the reaction by addition of 0.45 ml of stop buffer. PI-PLC (B. cereus) and adipocyte GPI-PLC (5-25 μg plasma membranes or hc/lcDIGs) were assayed by incubation with 10 μl of bovine erythrocyte acetylcholinesterase (AChE) solution (12 U/ml in 10 mM Tris/HCl, pH 7.4, 144 mM NaCl, 0.1% TX-100) in 100 μl of 20 mM Hepes/KOH (pH 7.8), 144 mM NaCl, 0.1% TX-100, 0.2 mM MgCl2 for 1 h at 25° C. and subsequent termination by adding 5 μl of glacial acetic acid and then 0.4 ml of 10 mM Tris/HCl (pH 7.4), 144 mM NaCl. Each reaction mixture was subjected to TX-114 partitioning (see below).
(§2) Pelleted hc/lcDIGs (10-50 μg protein) or (G)PI-PLC reaction mixtures (0.5 ml) were separated into amphiphilic and hydrophilic proteins using partitioning between TX-114-enriched and depleted phases according to “Bordier, C., (1981) J. Biol, Chem. […]” by suspending in 1 ml of ice-cold TX-114 (1%), 25 mM Tris/HCl (pH 7.4), 144 mM NaCl or mixing with 0.5 ml of ice-cold TX-114 (2%), respectively. After incubation for 1 h on ice, the mixture was layered onto a cushion of 0.4 ml of 0.25 M sucrose and 25 mM Tris/HCl (pH 7.4) on ice. Phase separation was induced by warming up to 37° C. and subsequent centrifugation (10,000×g, 1 min). After re-extraction of the lower TX-114-enriched phase, aliquots of the pooled upper TX-114-depleted phase were measured for 5′-Nuc, aP and AChE activity or precipitated (15 polyethylene glycol 4000) for SDS-PAGE analysis.
Table 1: GPI-PLC of hcDIGs from rat adipocytes, GPI-PLC from T. brucei and PI-PLC from B. cereus were incubated with solubilized and partially purified bovine erythrocyte AChE or human placental aP in the absence or presence of increasing concentrations (0.05 μM-1 mM) of the inhibitors indicated under appropriate conditions (see Materials and Methods). Cleavage rate was calculated from the amount of hydrophilic AChE and aP activity recovered with the TX-114-depleted phase upon TX-114 partitioning. […]

GPI-PLC (T. brucei) = target: T1, GPI-PLC (T. brucei) (Trypanosoma brucei brucei, UniProt P09194); assay: GPI-PLC (T. brucei) assay, human placental aP substrate, TX-114 partitioning; format: biochemical
T1 construct: purchased Oxford Glycosystems (Oxford, UK)
T1 sequence (P09194 whole entry): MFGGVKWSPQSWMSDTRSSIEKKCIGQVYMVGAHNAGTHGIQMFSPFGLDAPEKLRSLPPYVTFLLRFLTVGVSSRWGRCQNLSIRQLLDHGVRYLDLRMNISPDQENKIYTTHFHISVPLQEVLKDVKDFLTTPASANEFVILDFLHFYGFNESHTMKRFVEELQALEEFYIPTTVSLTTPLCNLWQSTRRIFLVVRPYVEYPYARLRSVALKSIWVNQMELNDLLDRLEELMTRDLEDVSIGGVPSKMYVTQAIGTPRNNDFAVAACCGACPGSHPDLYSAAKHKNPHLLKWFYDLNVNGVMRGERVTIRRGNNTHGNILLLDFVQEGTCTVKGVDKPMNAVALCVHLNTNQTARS
Experimental: as §1, §2
(§3) Table 1: GPI-PLC of hcDIGs from rat adipocytes, GPI-PLC from T. brucei and PI-PLC from B. cereus were incubated with solubilized and partially purified bovine erythrocyte AChE or human placental aP in the absence or presence of increasing concentrations (0.05 μM-1 mM) of the inhibitors indicated under appropriate conditions (see Materials and Methods). Cleavage rate was calculated from the amount of hydrophilic AChE and aP activity recovered with the TX-114-depleted phase upon TX-114 partitioning. Means+SD from at least 3 independent incubations with partitioning/enzyme assays in quadruplicate are given. n.a., not applicable.
(§4) Purified (G)PI-PLC/D from B. cereus, rat serum and T. brucei as well as total plasma membranes (PM) and hc/lcDIGs prepared from isolated rat adipocytes were incubated (10 min, 30° C.) with increasing concentrations of GPI-2350 and then assayed for amphiphilic-to-hydrophilic conversion of AChE and aP by TX-114 partitioning (see Materials and Methods). The lipolytic activity was calculated as % of the control reaction in the absence of GPI-2350 (set at 100%). Means+SD of at least 4 independent incubations with AChE and aP activity measurements in triplicate each are given.

PI-PLC (B. cereus) = target: T2, PI-PLC (B. cereus) (Bacillus cereus, UniProt P14262); assay: PI-PLC (B. cereus) assay, AChE substrate, TX-114 partitioning; format: biochemical; conditions: read-out: inhibition % at 1 mM
T2 construct: purchased SigmalAldrich (Deisenhofen, Germany)
T2 sequence (P14262 32-329 limits assumed): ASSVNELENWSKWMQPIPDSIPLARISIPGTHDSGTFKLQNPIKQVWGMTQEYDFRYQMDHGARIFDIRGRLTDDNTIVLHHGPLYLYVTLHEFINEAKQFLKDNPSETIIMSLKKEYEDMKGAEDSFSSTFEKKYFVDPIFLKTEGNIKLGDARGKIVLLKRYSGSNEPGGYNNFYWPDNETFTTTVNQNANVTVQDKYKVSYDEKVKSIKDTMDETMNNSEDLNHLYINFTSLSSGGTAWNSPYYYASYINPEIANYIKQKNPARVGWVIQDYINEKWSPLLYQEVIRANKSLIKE
Experimental: as §1, §2, §3, §4

isolated rat adipocytes = assay: glucose transport assay (2-deoxy-D-[3H]glucose); format: cell-based
Experimental: (§5) Glucose transport was determined as described in “Müller, G. et al., (1994) J. Cell Biol. 126: 1267-1276” by incubation of 10,000-20,000 washed adipocytes with 2-deoxy-D[2,6-^3H]glucose at 50 μM final conc. (0.33 μCi/ml) in 50-μl portions for 20 min at 37° C. in the absence or presence of 20 μM cytochalasin B.
(§6) Table 3: Isolated rat adipocytes were incubated in the presence of methyl-β-cyclodextrin (m-β-CD, 10 mM, 50 min), CBDP (300 μM, electroporation, followed by washing and subsequent incubation for 30 min), PIG41 (10 μM, 15 min), sodium orthovanadate (1 mM, 15 min), trypsin (10 μg/ml, 15 min followed by treatment with 0.5 M NaCl and subsequent washing) and N-ethylmaleimide (1 mM, 5 min followed by addition of DTT). After addition of GPI-2350 (50 μM final conc.) to one half of the adipocyte suspension and further incubation (60 min, 37° C.), portions of the cells were assayed for 5′-Nuc activity in the isolated IcDIGs. The increase in 5′-Nuc during the basal incubation was set at 100 arb. units. Other portions of the cells (after 15 min incubation) were assayed for glucose transport which was set at 100 arb. units for the basal incubation. Means+SD of at least 3 independent cell incubations with activity measurements in triplicate each are given.
(§7) FIG. 8: Effect of GPI-2350 on the glimepiride/insulin-induced metabolic activity. Isolated rat adipocytes were treated (5 min, 37° C.) without or with GPI-2350 (Panel A, 50 μM; Panel B, increasing conc.; Panel C, 5 μM, 50 μM) and then incubated (15 min, 37° C.) in the absence or presence of insulin (Ins, 10 nM) or glimepiride (Gli, 20 μM or increasing conc.) as indicated. The adipocytes were then assayed for glucose transport and isoproterenol-induced lipolysis. The activity is given relative to the absence of GPI-2350 in the control reaction (Panels A, basal) or in the insulin- and glimepiride-stimulated state (Panels B and C, set at 100). Means+SD of at least 5 independent cell incubations with activity measurements in triplicate each are given.

[1] = test system: 5′-Nuc in isolated rat adipocytes; assay: 5′-Nuc translocation to lcDIGs induced by insulin-mimetic stimuli; format: cell-based
Experimental: as §6

[2] = test system: patients with type 2 diabetes; conditions: cited from earlier work
[3] = test system: glucose transport, rat adipocytes; assay: Glucose transport in rat adipocytes; format: cell-based; conditions: for Glucose Transport: basal set at 100; for glucose transport (in words): insulin-mimetic stimuli
Experimental: as §5
Subsequently, we studied whether the differential effects of GPI-PLC inhibition on IRS-1 tyrosine phosphorylation in response to insulin and glimepiride is reflected in their metabolic activity in insulin target cells. For this, isolated rat adipocytes were pretreated with GPI-2350 prior to challenge with either stimulus, and then assayed for glucose transport and isoproterenol-induced lipolysis (FIG. 8). […] These differential effects of GPI-PLC inhibition were confirmed by analysis of the effect of GPI-2350 on the inhibition of isoproterenol-induced lipolysis by glimepiride and insulin when measured as release of NBD-FA instead of glycerol from rat adipocytes prelabeled with this fluorescent fatty acid derivative (FIG. 9).
as §6, §7

5'-Nuc, rat adipocytes = assay: 5'-Nuc translocation to lcDIGs induced by insulin-mimetic stimuli; format: cell-based; conditions: for Increase in 5′-Nuc at lcDIGs: basal set at 100
Source text: Finally, the involvement was investigated of the GPI-PLC in signaling pathways of insulin-mimetic stimuli other than glimepiride, which are either dependent on or independent of the redistribution of GPI-proteins within DIGs. […] This is in agreement with their modes of action, the well-known inhibition of insulin receptor and IRS-1 dephosphorylation by the tyrosine phosphatase inhibitor, vanadate and the direct stimulation of pp59^Lyn and IRS-1 tyrosine phosphorylation by the CBDP.
as §6

[4] = +GPI-2350 (50 μM final conc., 15 min)
[5] = +GPI-2350 (50 μM final conc., 60 min)

In the case of CCCCCCCCCCCCP(=O)(O)O[C@H]1[C@H](O)[C@@H](O)[C@H](O)[C@@H](O)[C@@H]1F [GPI-1793, 2-deoxy-2-fluoro-scyllo-inositol-1-O-dodecyl-phosphonic acid], the “effect on the adipocyte GPI-PLC” value (rat adipocyte GPI-PLC) is reported as “moderate”.
CCCCCCCCCCCCP(=O)(OC)O[C@@H]1[C@H](O)[C@H](O)[C@@H](O)[C@H](O)[C@H]1O (stereo partly shown) [GPI-2349, myo-inositol-1-O-dodecylphosphonic acid methylester] showed an IC50 (GPI-PLC (T. brucei); IC50, Table 1, inhibitor 0.05 μM-1 mM) of 310 to 390 µM, an inhibition at 1000 µM (GPI-PLC (T. brucei); read-out: inhibition % at 1 mM) of 66% and an inhibition at 1000 µM (PI-PLC (B. cereus)) of 24%. For the same compound, the “effect on the adipocyte GPI-PLC” value (rat adipocyte GPI-PLC) was “very moderate”.
With CCN1C(=O)C=CC1=O [N-ethylmaleimide] the “Glucose Transport (basal set at 100 arb. units)” value (isolated rat adipocytes; [4]) was 288 + 40 arb. units, the “Glucose Transport (basal set at 100 arb. units)” value (isolated rat adipocytes; −GPI-2350) was 308 + 33 arb. units and the “Increase in 5′-Nuc at lcDIGs (basal set at 100 arb. units)” value (“Increase … (basal set at 100 arb. units)” for short) [1, 5] was 319 + 52 arb. units. The “Increase … (basal set at 100 arb. units)” value ([1]; −GPI-2350) was 292 + 60 arb. units.
For CCC1=C(C)CN(C(=O)NCCc2ccc(S(=O)(=O)NC(=O)N[C@H]3CC[C@H](C)CC3)cc2)C1=O [glimepiride], the effects vs. gliclazide ([2]; 14-week study) is listed as “no differences between their effects”, the “rate of blood glucose reduction vs. glipizide” value ([2]; first few weeks of treatment) is listed as “more rapidly than glipizide” and the “effects on cardiovascular variables” value ([2]; human, in vivo) is listed as “fewer and less severe effects on cardiovascular variables than glibenclamide”. For the same compound, the “pharmacokinetics in elderly, renal or liver disease” value ([2]; human, in vivo) was “mainly unaltered” and the “efficacy of glimepiride plus insulin” value ([2]; secondary sulphonylurea failure, fasting glucose target ≦7.8 mmol/L) was “as effective as insulin plus placebo”.
In the case of [Na+].[Na+].[Na+].[O]=[V]([O-])([O-])[O-] [sodium orthovanadate], the “Glucose Transport (basal set at 100 arb. units)” value (isolated rat adipocytes; [4]) is reported as 673 + 45 arb. units, the “Glucose Transport (basal set at 100 arb. units)” value (isolated rat adipocytes; −GPI-2350) is reported as 707 + 51 arb. units and the “Increase … (basal set at 100 arb. units)” value [1, 5] is reported as 105 + 34 arb. units. For the same compound, the “Increase … (basal set at 100 arb. units)” value ([1]; −GPI-2350) was 93 + 38 arb. units, the “Glucose Transport” value ([3]; +GPI-2350 (50 μM)) was 673 + 45 arb. units and the “glucose transport (in words)” value [3] was “stimulated glucose transport”. The “Glucose Transport” value ([3]; −GPI-2350) was 707 + 51 arb. units, the “5'-Nuc at lcDIGs (in words)” value (5'-Nuc, rat adipocytes) was “without concomitant induction of 5′-Nuc translocation to IcDIGs” and the “Increase in 5′-Nuc at lcDIGs” value (5'-Nuc, rat adipocytes; +GPI-2350 (50 μM)) was 105 + 34 arb. units. For the same compound, the “Increase in 5′-Nuc at lcDIGs” value (5'-Nuc, rat adipocytes; −GPI-2350) was 93 + 38 arb. units.
With “methyl-β-cyclodextrin [m-β-CD] [listing 1 of 2 here]” the “Glucose Transport (basal set at 100 arb. units)” value (isolated rat adipocytes; [4]) was 249 + 18 arb. units, the “Glucose Transport (basal set at 100 arb. units)” value (isolated rat adipocytes; −GPI-2350) was 289 + 13 arb. units and the “Increase … (basal set at 100 arb. units)” value [1, 5] was 539 + 104 arb. units. The “Increase … (basal set at 100 arb. units)” value ([1]; −GPI-2350) was 595 + 128 arb. units.
In the case of “methyl-β-cyclodextrin [m-β-CD] [listing 2 of 2 here]”, the “Glucose Transport” value ([3]; +GPI-2350 (50 μM)) is reported as 249 + 18 arb. units, the “glucose transport (in words)” value [3] is reported as “glucose transport activation” and the “Glucose Transport” value ([3]; −GPI-2350) is reported as 289 + 13 arb. units. For the same compound, the “5'-Nuc at lcDIGs (in words)” value (5'-Nuc, rat adipocytes) was “pronounced increases”, the “Increase in 5′-Nuc at lcDIGs” value (5'-Nuc, rat adipocytes; +GPI-2350 (50 μM)) was 539 + 104 arb. units and the “Increase in 5′-Nuc at lcDIGs” value (5'-Nuc, rat adipocytes; −GPI-2350) was 595 + 128 arb. units.

— patent publication US8017350B2, “Glimepiride- and insulin-induced glycosylphosphatidylinositol-specific phospholipase C regulation” (Sanofi-Aventis Deutschland GmbH, priority 2004, dated 2011)
